The source of these data is patent publication US20150210741A1, “JAGARICIN DERIVATIVES AND THEIR USE AS FUNGICIDE OR ANTITUMOR AGENT” (Leibniz-Institut Für Naturstoff-Forschung Und …, priority 2012, published 2015).

The test system of one data set is A. fumigatus. Kind of data set: Agar diffusion antifungal bioactivity test. The class given is cell-based. The conditions noted are these: Aspergillus fumigatus. On the procedure: (§1) Janthinobacterium agaricidamnosum (DSM 9628) was retrieved from the German collection of microorganisms (DSM). The bacteria were cultured in nutrient media (605 DSM without NaCl; 1 g/L beef extract, 2 g/L yeast extract, 5 g/L peptone, 15 g/L agar). Plates and liquid cultures (shaken at 150 rpm in baffled flasks) were grown at 22° C. and 28° C., respectively. During screening plates and liquid cultures of modified nutrient agar (additional 4 g/L chitin, 100 g/L mushroom cubes), M9 (6 g/L Na2HPO4, 3 g/L KH2PO4, 0.5 g/L NaCl, 2 g/L NH4Cl, 4 g/L glucose, […], 2 mM MgSO4, 15 g/L agar), MS (20 g/L mannite, 20 g/L soy flour, 20 g/L agar) and modified VK (5 g/L glycine, 10 g/L yeast extract, 10 g/L glucose, 10 g/L corn steep, 10 g/L CaCO3, 15 g/L agar pH 6.7-7.0) media were used. For the production of jagaricin J. agaricidamnosum was grown in modified VK medium. The selection of positive J. agaricidamnosum mutants was carried out on nutrition agar supplemented with 50 μg/mL kanamycin. For the construction of pKG01, Escherichia coli Top 10 cells and E. coli ER2925 cells were used. E. coli was cultured in LB medium (10 g/L tryptone, 5 g/L yeast extract, 5 g/L NaCl, 1 g/L glucose) supplemented with 50 μg/mL kanamycin. Candida albicans, Aspergillus fumigatus and A. terreus were used for the bioactivity tests and they were cultivated on malt agar (C. albicans; 40 g/L malt extract, 4 g/L yeast extract, 15 g/L agar, pH 5.7-6.0) and potato glucose agar (A. fumigatus and A. terreus; 4 g/L potato starch infusion, 20 g/L dextrose, 15 g/L agar) plates, respectively.
(§2) 50 μL of different concentrated jagaricin solutions were each pipetted into a pierced hole (9 mm diameter) within an agar plate that was inoculated with the test strains C. albicans, A. fumigatus and A. terreus, respectively. After incubation at 24° C. over night the inhibition zone was measured. The antiproliferative and cytotoxic assay were performed as previously described (Abdou, R. et al., Phytochemistry, 2009. 71(1): p. 110-6).
For orientation: A growth-free zone around the sample is the usual read-out of agar diffusion tests.

A further data set has as its system A. terreus. Briefly: Agar diffusion antifungal bioactivity test. It counts as cell-based. The settings on record: Aspergillus terreus. On the procedure: as §1, §2
The test system of the next data set is C. albicans. Briefly: Agar diffusion antifungal bioactivity test. It counts as cell-based. The settings on record: Candida albicans. On the procedure:
as §1, §2

The subject of data set [1] is human chronic myeloid leukemia cells K-562. Briefly: Antiproliferative assay. The conditions noted are these: K562, K-562, antiproliferative. It counts as cell-based. On the procedure:
as §2

Data set [2] concerns human umbilical vein endothelial cells HUVEC. Briefly: Antiproliferative assay. It counts as cell-based. On the procedure:
as §2

The next data set is described as follows: Cytotoxic assay. It counts as cell-based. The conditions noted are these: human, HeLa cells (human cervix carcinoma). On the procedure:
as §2

The test system of a further data set is bacteria. Briefly: Antibacterial activity (data not shown). It counts as cell-based.
For another data set, the system named is mushroom tissue. Briefly: Application of purified jagaricin on mushroom tissue. Further details: species or system Agaricus bisporus. The settings on record: purified jagaricin applied to mushroom tissue.

In brackets after ≈: the same amount, converted by molar mass. Starred links: 1 amine or outer side, 2 acyl side, 3 side chain; linkers in the order of their positions; H or OH if unused. Positions of bridges follow the written chain, without caps; N, C: chain ends. Non-standard residues stand in square brackets, D forms with d. Residues, ends and D or L forms follow the SMILES beside them. *: point of attachment. Tetradecanoyl(3R-OH) = CCCCCCCCCCC[C@@H](O)CC(=O)*; X1 = C/C=C(/N[*:1])C(=O)[*:2]; Dhb = C/C=C(\N)C(=O)O

As to `C/C=C1\NC(=O)[C@@H](Cc2ccc(O)cc2)NC(=O)[C@@H]([C@H](C)O)NC(=O)[C@@H](NC(=O)/C(=C\C)NC(=O)C[C@H](O)CCCCCCCCCCC)[C@@H](C)OC(=O)[C@H](Cc2c[nH]cn2)NC(=O)[C@H]([C@@H](C)O)NC(=O)CNC(=O)[C@@H](CCC(N)=O)NC1=O` [jagaricin] ({Tetradecanoyl(3R-OH)}-[X1]T[dT][dY][Dhb][dQ]GTH; ester 2-C), the figures for the MIC against A. fumigatus, in the data set on A. terreus and in the data set with C. albicans were 0.41 µM (≈ 0.484 µg/mL), 0.28 µM (≈ 0.331 µg/mL) and 0.42 µM (≈ 0.496 µg/mL), respectively. Further, the GI50 in data set [1] and in data set [2] was 1000 nM throughout. In “Cytotoxic assay”, this molecule came in with a CC50 of 3800 nM. Moreover, the antibacterial activity entry in the data set on bacteria is reported as “little or no antibacterial activity”. In the data set with mushroom tissue, the “lesion on mushroom tissue” value is recorded as “caused a superficial lesion on mushroom tissue”.

For orientation: MIC means the least concentration at which growth counts as inhibited. High values mean weaker potency, low ones greater potency. One may read the GI50 as the concentration that inhibits growth by half. A higher GI50 goes with less potent growth inhibition. As a reminder, the CC50 is the concentration giving 50% cytotoxicity. Read a low CC50 as greater toxicity to the cells.
